Legend:
US28 [1] = molecular target: T1, US28 (Human cytomegalovirus, UniProt P69332); experiment: cell-based; design: species or system HCMV; conditions: for % 10^-5 remaining activity on US28 in inositol phosphate assay: at 10^-5; for inverse agonistic effect at US28 relative to the compound of Formula X (statement in words): structure-activity discussion of Table 1; for loss in inverse agonistic potency: relative to the compound of Formula X
Protocol: (§1) Cell culture, transfection and infection with HCMV. COS-7 cells were grown as previously described in the cited Casarosa reference. Transfection of the COS-7 cells was performed by DEAE-dextran, using 2 µg of DNA of each US28 construct per million cells. Human foreskin fibroblasts (HFFs) were cultured and infected with […] (strain AD169) or a deletion mutant Δ28-HCMV.
(§2) [^3H]-inositol phosphate production. Experiments in COS-7 cells and HFFs were performed as described in the references mentioned in the previous paragraph.
Data analysis. Curve fitting of data was carried out using the program Prism and IC50 values obtained by nonlinear regression analysis (GraphPad Software, Inc., San Diego, USA). Data are expressed as mean ± S.E.
In order to find inverse agonists for US28, a variety of compounds were screened for modulation of US28-mediated constitutive inositol phosphate (InsP) production. This approach led to identify the compound of Formula X as inverse agonist for US28.

US28 [2] = molecular target: T1, US28; experiment: biochemical; assay type: binding, HCMV
RCMV-encoded R33 = molecular target: T2, RCMV-encoded R33 (Rat cytomegalovirus, UniProt O12000); experiment: R33-mediated InsP accumulation (PLC activation) in COS-7 cells; assay type: cell-based; conditions: concentration as high as 10 µM
T2 construct: expressed in transfected cells; host or cells: COS-7
T2 sequence (O12000 whole entry): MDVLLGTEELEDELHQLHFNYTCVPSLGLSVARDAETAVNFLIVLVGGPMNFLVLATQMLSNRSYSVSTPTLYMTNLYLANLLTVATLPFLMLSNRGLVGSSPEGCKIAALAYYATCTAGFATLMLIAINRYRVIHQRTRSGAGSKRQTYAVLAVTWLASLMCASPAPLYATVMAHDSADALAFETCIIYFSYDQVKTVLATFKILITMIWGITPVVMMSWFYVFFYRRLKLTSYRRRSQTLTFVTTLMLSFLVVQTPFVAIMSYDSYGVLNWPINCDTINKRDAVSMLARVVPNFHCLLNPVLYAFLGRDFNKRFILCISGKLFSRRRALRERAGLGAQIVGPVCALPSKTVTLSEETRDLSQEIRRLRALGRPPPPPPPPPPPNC
Protocol: as §2
(§3) Moreover, other GPCRs were used as controls to ascertain specificity of action of this compound. As previously reported, expression ofRCMV-encoded R33 (Gruijthuijsen et al. J. Virol. 76 (2002), 1328-1338) or KSHV-encoded ORF74 (Rosenkilde et al. 274 (1999), 956-961) also leads to constitutive activation of phospholipase C.

KSHV-encoded ORF74 = molecular target: T3, KSHV-encoded ORF74 (Human herpesvirus 8 type P, UniProt Q98146); experiment: ORF74-mediated InsP accumulation (PLC activation) in COS-7 cells; assay type: cell-based; conditions: concentration as high as 10 µM
T3 construct: expressed in transfected cells; host or cells: COS-7
T3 sequence (Q98146 whole entry): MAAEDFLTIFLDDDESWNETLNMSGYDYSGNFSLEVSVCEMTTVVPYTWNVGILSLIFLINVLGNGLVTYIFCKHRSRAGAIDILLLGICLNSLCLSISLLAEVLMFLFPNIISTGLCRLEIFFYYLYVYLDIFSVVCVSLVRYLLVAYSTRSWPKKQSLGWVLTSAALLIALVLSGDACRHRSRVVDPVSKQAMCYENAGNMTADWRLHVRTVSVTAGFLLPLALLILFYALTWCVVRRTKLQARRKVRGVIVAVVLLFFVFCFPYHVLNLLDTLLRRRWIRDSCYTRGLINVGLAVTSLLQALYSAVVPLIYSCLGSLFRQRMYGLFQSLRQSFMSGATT
Protocol: as §2, §3

[3] = molecular target: T4, human histamine H1 receptor (hH1) (Homo sapiens, UniProt P35367); experiment: InsP production in COS-7 cells expressing the histamine H1 receptor; assay type: cell-based; conditions: 10 µM, COS-7 cells expressing the H1 receptor
T4 construct: expressed in transfected cells; host or cells: COS-7
T4 sequence (P35367 whole entry): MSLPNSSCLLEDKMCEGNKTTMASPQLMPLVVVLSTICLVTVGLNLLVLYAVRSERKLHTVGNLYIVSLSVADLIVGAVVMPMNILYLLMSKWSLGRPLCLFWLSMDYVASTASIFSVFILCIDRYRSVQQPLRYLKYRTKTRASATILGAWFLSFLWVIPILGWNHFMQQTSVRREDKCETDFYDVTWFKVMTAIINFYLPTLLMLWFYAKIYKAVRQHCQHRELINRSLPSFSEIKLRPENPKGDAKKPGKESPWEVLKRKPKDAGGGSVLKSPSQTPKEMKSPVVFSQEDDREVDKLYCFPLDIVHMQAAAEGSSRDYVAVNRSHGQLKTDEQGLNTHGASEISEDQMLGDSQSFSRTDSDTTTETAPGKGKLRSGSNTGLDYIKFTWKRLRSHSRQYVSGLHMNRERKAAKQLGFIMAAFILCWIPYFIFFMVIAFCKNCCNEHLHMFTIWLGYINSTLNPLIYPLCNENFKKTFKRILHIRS
Protocol: as §2
Furthermore, the compound of Formula X was tested on COS-7 cells expressing the human histamine H1 receptor (hH1). Like US28, this GPCR constitutively activates PLC enzymes via Gαq/11 proteins.

transfected cells = experiment: AlamarBlue toxicity test; assay type: cell-based; conditions: AlamarBlue assay, 2 hours incubation, data not shown
Protocol: Toxicity test. The AlamarBlue^TM assay (Serotec, Oxford, UK) was performed following the manufacturer's protocol. Briefly, transfected cells were incubated with the compound of Formula X for 2 hours, followed by the addiction of the AlamarBlue dye.
After 1 hour, the fluorescence was monitored at 560 nm excitation wavelength and 590 nm emission wavelenght in a Victor^2 (PerkinElmer, Boston, USA).

US28 [4] = molecular target: T1, US28; assay type: binding, HCMV; conditions: in the presence of 10 µM compound of Formula X (725 ± 69 in its absence)
Protocol: (§4) Binding experimants. Labeling of RANTES (Peprotech, Rocky Hill, USA) with [^125I] and binding in COS-7 cells were performed as previously described (Gruijthuijsen et al., J. Virol. 76 (2002) 1328-1338).
Moreover, the present inventors investigated the effect of the compound of Formula X in a saturation binding assay of [^125I]-RANTES.

Δ(2-22)-US28 = Δ(2-22)-US28 (Human cytomegalovirus, UniProt P69332); experiment: cell-based; design: species or system HCMV
Chain of Δ(2-22)-US28 (P69332 22-354, looked up, stated change not applied): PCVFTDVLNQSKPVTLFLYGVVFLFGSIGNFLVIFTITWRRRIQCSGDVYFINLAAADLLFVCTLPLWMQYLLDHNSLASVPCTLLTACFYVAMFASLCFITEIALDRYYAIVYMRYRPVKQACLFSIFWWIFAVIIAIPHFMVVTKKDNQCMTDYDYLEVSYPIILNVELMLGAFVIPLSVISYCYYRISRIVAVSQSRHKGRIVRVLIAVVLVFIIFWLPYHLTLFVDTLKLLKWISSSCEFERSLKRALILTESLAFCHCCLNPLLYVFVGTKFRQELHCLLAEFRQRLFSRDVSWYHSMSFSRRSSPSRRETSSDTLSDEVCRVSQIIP
Text: (§5) DNA constructs. The cDNA encoding for US28 (see Casarosa et al. in J, Biol. Chem. 276 (2001) 1133-1137) was inserted into the mammalian vector pcDNAS. Δ(2-22)-US28 and the HA-tagged versions of both WT- and Δ(2-22)-US28 were generated by PCR. Single amino acid mutations, as for E^277A- and E^277Q.US28, were introduced using the Altered Sites® II in vitro Mutagenesis System (Promega, Madison, USA), according to manufacturer's protocol. All constructs were verified by dideoxy sequencing.
as §2

E^277A-US28 = E^277A-US28 (Human cytomegalovirus, UniProt P69332, E277A); assay type: binding, HCMV; conditions: E277A-US28, [125I]-RANTES displacement
Chain of E^277A-US28 (P69332 whole entry E277A): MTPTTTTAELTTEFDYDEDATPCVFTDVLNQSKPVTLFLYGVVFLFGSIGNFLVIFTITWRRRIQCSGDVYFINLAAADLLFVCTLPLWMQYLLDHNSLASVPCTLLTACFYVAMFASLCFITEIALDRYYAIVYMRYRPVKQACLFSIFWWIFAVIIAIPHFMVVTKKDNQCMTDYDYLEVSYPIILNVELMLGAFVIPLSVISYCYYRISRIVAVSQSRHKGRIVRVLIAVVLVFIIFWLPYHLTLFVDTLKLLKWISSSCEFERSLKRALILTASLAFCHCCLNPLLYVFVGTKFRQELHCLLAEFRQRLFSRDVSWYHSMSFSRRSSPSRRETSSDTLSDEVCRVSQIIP
Text: as §5, §4
(§6) E^277 was therefore mutated into glutamine, to eliminate the charge but retain the hydrogen bonding potential of the side chain, and into alanine, to eliminate both the charge and the hydrogen bonding potential.

E^277Q-US28 = E^277Q-US28 (Human cytomegalovirus, UniProt P69332, E277Q); assay type: binding, HCMV; conditions: E277Q-US28, [125I]-RANTES displacement
Chain of E^277Q-US28 (P69332 whole entry E277Q): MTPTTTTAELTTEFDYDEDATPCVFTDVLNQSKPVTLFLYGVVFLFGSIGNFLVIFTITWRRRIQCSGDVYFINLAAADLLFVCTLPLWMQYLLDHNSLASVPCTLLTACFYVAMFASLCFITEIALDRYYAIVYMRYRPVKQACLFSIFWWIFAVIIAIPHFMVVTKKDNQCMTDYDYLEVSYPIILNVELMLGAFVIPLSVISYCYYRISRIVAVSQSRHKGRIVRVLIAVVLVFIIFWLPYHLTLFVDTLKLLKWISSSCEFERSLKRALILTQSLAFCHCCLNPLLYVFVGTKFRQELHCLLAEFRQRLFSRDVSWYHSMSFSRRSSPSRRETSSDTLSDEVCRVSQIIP
Text: as §5, §4, §6

US28 [5] = molecular target: T1, US28; experiment: cell-based; design: species or system HCMV (strain AD169)
Protocol: as §1, §2

US28 [6] = experiment: cell-based; design: species or system HCMV (strain AD169); conditions: US28-deletion-mutant-HCMV- or mock-infected HFFs
Protocol: as §1, §2

US28 [7] = molecular target: T1, US28; experiment: biochemical; assay type: binding, HCMV (strain AD169); conditions: AD169-infected HFFs
Protocol: as §1, §4

[8] = system: US28-mediated HIV-1 entry; experiment: HIV-1 infection assay (luciferase reporter virus) in HEK293-T cells with CD4 and US28; assay type: cell-based; conditions: Human immunodeficiency virus 1, HEK-293T
Protocol: HIV-1 infection assay. HEK293-T cells were transiently transfected with pcDNA1-US28 and pcDNA1-CD4 using the calcium phosphate method and cultured overnight in 48 well plates. The following day, cells were incubated with different concentrations of the compound of Formula X (dissolved in DMSO) or medium (containing an equal amount of DMSO) for 2 hours before infection with an R5-tropic HIV- 1 virus containing the luciferase reporter gene under the LTR promoter. After overnight incubation, cells were washed twice and cultivated in fresh medium. 3 days after infection, the luciferase activity was quantitated using the Luciferase Assay System (Promega, Madison, USA).
(§7) In order to test the ability of the compound of Formula X to block viral entry via US28, a reporter gene assay was used. In this assay, HEK-293T cells expressing US28 and CD4 are infected by a luciferase-containing HIV-1 reporter virus. Consequently, the level of cellular luciferase activity is proportional to HIV-1 entry. […] Luciferase activity is increased approximately 20 fold in the presence of US28 when compared to cells expressing CD4 alone (fig. 6A). […] At 10^-6M, the compound of Formula X reduces HIV-1 entry to 41 ± 8 % of control cells. Determination of a complete dose-response curve was not possible due to toxic effects of DM50 and the compound at higher concentrations, as determined by MTT test.

HEK-293T cells = experiment: MTT test; assay type: cell-based; conditions: higher concentrations (above 10^-6M), together with the solvent
Text: as §7

[9] = IC50 InsP, inhibition of US28-mediated InsP production, COS-7 cells, N.A. = non active

T1 sequence (P69332 whole entry): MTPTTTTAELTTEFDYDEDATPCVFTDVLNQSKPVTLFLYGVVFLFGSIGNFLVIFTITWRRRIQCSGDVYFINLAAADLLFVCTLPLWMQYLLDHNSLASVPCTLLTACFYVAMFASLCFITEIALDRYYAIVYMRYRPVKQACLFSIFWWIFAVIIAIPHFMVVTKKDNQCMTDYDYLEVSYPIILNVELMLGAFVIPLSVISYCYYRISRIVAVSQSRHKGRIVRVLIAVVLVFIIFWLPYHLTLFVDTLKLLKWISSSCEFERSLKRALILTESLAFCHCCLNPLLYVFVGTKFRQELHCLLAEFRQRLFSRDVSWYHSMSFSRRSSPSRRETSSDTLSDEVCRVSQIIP

N#CC(CCCN1CCC(O)(c2ccc(Cl)cc2)CC1)(c1ccccc1)c1ccccc1 [Formula X]
kind of inverse agonism at US28 (inhibition of signaling complete) (US28 [1]; COS-7 cells): full inverse agonist
IC50 (US28 [1]; [9]): 3.5 µM
% 10^-5 remaining activity on US28 in inositol phosphate assay (US28 [1]): 10%
IC50 (US28 [1]; pIC50 of US28 mediated InsP production, COS-7 cells, WT-US28): 3.47 µM
IC50 (US28 [2]): 8.4 µM
modulation of R33-mediated PLC activation (RCMV-encoded R33): does not modulate
modulation of ORF74-mediated PLC activation (KSHV-encoded ORF74): does not modulate
basal or histamine-induced production of InsP [3]: does not alter
cellular toxicity (transfected cells): did not show cellular toxicity
Bmax value of [125I]-RANTES (US28 [4]): 380 ± 36 fmol/mg protein
IC50 (Δ(2-22)-US28): 4.47 µM
inhibition of constitutive signaling (Δ(2-22)-US28; Δ(2-22)-US28, COS-7 cells): totally inhibits
affinity compared to WT-US28 (E^277A-US28): markedly reduced
affinity compared to WT-US28 (E^277Q-US28): markedly reduced
IC50 (US28 [5]): 0.776 µM
effect on InsP signaling (US28 [6]): does not affect
IC50 (US28 [7]; IC50 of [125I]-RANTES displacement): 0.708 µM
IC50 (US28 [7]; pIC50 of [125I]-RANTES displacement): 0.708 µM
activity at 1 µM ([8]; read-out: HIV-1 entry, % of control cells): 41 ± 8%
inhibition at 1 µM ([8]; read-out: inhibition of viral entry): 60%
toxicity by MTT test (HEK-293T cells): toxic effects

OC1(c2ccc(Cl)cc2)CCN(CCCOc2ccccc2)CC1 [VUF5714]
% 10^-5 remaining activity on US28 in inositol phosphate assay (US28 [1]): 77%

OC1(c2ccc(Cl)cc2)CCN(CCCC(c2ccccc2)c2ccccc2)CC1 [VUF5667]
IC50 (US28 [1]; [9]): 4.2 µM
% 10^-5 remaining activity on US28 in inositol phosphate assay (US28 [1]): 23%
inverse agonistic effect at US28 relative to the compound of Formula X (statement in words) (US28 [1]): does not affect the activity
IC50 (US28 [2]): 5.9 µM

N#CC(CCCN1CC=C(c2ccc(Cl)cc2)CC1)(c1ccccc1)c1ccccc1 [VUF5664]
% 10^-5 remaining activity on US28 in inositol phosphate assay (US28 [1]): 83%

N#CC(CCCN1CCC(C(N)=O)CC1)(c1ccccc1)c1ccccc1 [VUF5720]
% 10^-5 remaining activity on US28 in inositol phosphate assay (US28 [1]): 87%

N#CC(O)(CCCN1CCC(O)(c2ccc(Cl)cc2)CC1)c1ccccc1 (stereo not shown) [VUF5715]
inverse agonistic effect at US28 relative to the compound of Formula X (statement in words) (US28 [1]): loss of effect

N#CC(CCCN1CCN(c2ccc(Cl)cc2)CC1)(c1ccccc1)c1ccccc1 [VUF5658]
% 10^-5 remaining activity on US28 in inositol phosphate assay (US28 [1]): 88%
inverse agonistic effect at US28 relative to the compound of Formula X (statement in words) (US28 [1]): inactive

O=C(CCCN1CCC(O)(c2ccc(Cl)cc2)CC1)c1ccccc1 [VUF5666]
% 10^-5 remaining activity on US28 in inositol phosphate assay (US28 [1]): 70%

N#CC1(CCCN2CCC(O)(c3ccc(Cl)cc3)CC2)c2ccccc2CCc2ccccc21 [VUF5713]
IC50 (US28 [1]; [9]): 5.3 µM
% 10^-5 remaining activity on US28 in inositol phosphate assay (US28 [1]): -5%
inverse agonistic effect at US28 relative to the compound of Formula X (statement in words) (US28 [1]): comparable potencies
IC50 (US28 [2]): 9.6 µM

N#CC(CCCN1CCC(C(=O)O)CC1)(c1ccccc1)c1ccccc1 [VUF5718]
% 10^-5 remaining activity on US28 in inositol phosphate assay (US28 [1]): 85%

NCC(CCCN1CCC(O)(c2ccc(Cl)cc2)CC1)(c1ccccc1)c1ccccc1 [VUF5728]
% 10^-5 remaining activity on US28 in inositol phosphate assay (US28 [1]): 10%

O=C(NCC(CCCN1CCC(O)(c2ccc(Cl)cc2)CC1)(c1ccccc1)c1ccccc1)NC1CCNCC1 [VUF5717]
% 10^-5 remaining activity on US28 in inositol phosphate assay (US28 [1]): 100%

N#CC(CCCN1CCC(c2ccc(Cl)cc2)CC1)(c1ccccc1)c1ccccc1 [VUF5662]
IC50 (US28 [1]; [9]): 14 µM
% 10^-5 remaining activity on US28 in inositol phosphate assay (US28 [1]): 60%
loss in inverse agonistic potency (US28 [1]): five- to ten-fold
IC50 (US28 [2]; [125I]-RANTES binding at US28, COS-7 cells, N.A. = non active, read-out: IC50 binding): 10.5 µM

N#CC(CCCN1CCC(O)(c2ccccc2)CC1)(c1ccccc1)c1ccccc1 [VUF5660]
IC50 (US28 [1]; [9]): 29 µM
% 10^-5 remaining activity on US28 in inositol phosphate assay (US28 [1]): 60%
loss in inverse agonistic potency (US28 [1]): five- to ten-fold
IC50 (US28 [2]): 35 µM

N#CC1(CCCN2CCC(O)(c3ccc(Cl)cc3)CC2)c2ccccc2CSc2ccccc21 (stereo not shown) [VUF5727]
% 10^-5 remaining activity on US28 in inositol phosphate assay (US28 [1]): 14%

CC(C)(C)c1ccc(C(O)CCCN2CCC(C(O)(c3ccccc3)c3ccccc3)CC2)cc1 (stereo not drawn) [Terfenadine, α-[4-(1,1-dimethylethyl)phenyl]-4-(hydroxydiphenylmethyl)-1-piperidinebutanol, reference compound]
% 10^-5 remaining activity on US28 in inositol phosphate assay (US28 [1]): 15%

Source: patent publication EP1393728A1, “Inverse agonists acting at virus-encoded G protein-coupled receptors” (priority 2002, dated 2004)
